We go through 81 molecules from the METLIN SMRT retention time set (Domingo-Almenara et al. 2019).

This data set is described as follows: gradient 5% acetonitrile 3 min, to 50% in 2 min, to 85% in 15 min, held 3 min, 100 µL/min. The settings on record: column: Zorbax Extend-C18 2.1 x 50 mm; eluents: water / acetonitrile, 0.1% formic acid. A digest of the protocol:
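Over 3 months, pure standards in mixtures of ~100 molecules were run by HPLC coupled to a quadrupole time-of-flight mass spectrometer in positive and negative ionization mode. The column was a Zorbax Extend-C18 (2.1 × 50 mm, 1.8 μm) at 100 μL/min, eluted with water and acetonitrile each holding 0.1% formic acid, with 40 μL dead and 900 μL dwell volumes. Retention time was determined from adduct peaks chosen by software and checked manually.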
`CC1=C(c2ccc(Cl)cc2)S(=O)(=O)N=C1N1CCC(NC(=O)C2CCOC2)CC1` (stereo unspecified) registered an RP-LC retention time of 733 s.
The same measure for `CCn1ccc(C(=O)NC2CC2)n1`: 619 s.
Then `COc1ccc(C(=O)Nc2cccc(-c3csc(C)n3)c2)nn1`, with 586 s; and `CCn1c(=O)c(SCC(=O)NCCCN2CCCC(C)C2)nc2ccccc21` (stereo unspecified), with 615 s; and `CCOC1CCN(C(=O)c2ccc(F)cc2)CC1`, with 760 s.
Consider `CS(=O)(=O)N1CCCCC1c1nncn1Cc1ccccc1` (stereo unspecified), for which the RP-LC retention time was determined as 691 s.
Then `Cc1ccc(-c2noc(CCN3CCN(c4ccccn4)CC3)n2)cc1`, with 625 s.
The same measure for `Cc1ccc(-c2nc3nc(C)c(CC(=O)N4CCCC4)c(C)n3n2)cc1`: 738 s.
Take `COc1ccc(N2CC(c3noc(-c4ccc(C)cc4C)n3)CC2=O)cc1` (stereo unspecified): the RP-LC retention time worked out at 1000 s.
Then `CCc1nnc2ccc(-c3noc(Cc4ccc(Cl)cc4)n3)cn12`, with 932 s; and `O=C(Nc1ccc(F)c(F)c1)c1cnc(-c2ccc(F)cc2)nc1-c1ccncc1`, with 985 s; and `Cc1ccc(C)c(S(=O)(=O)Nc2ccc(-c3cn4ccc(C)nc4n3)cc2)c1`, with 678 s.
In turn, `Cc1cccn2c(=O)cc(CN(C)Cc3ccccc3)nc12` came in with an RP-LC retention time of 603 s.
As for `COCCN(CC(=O)N1CCc2sccc2C1COc1ccc(Cl)cc1)C(=O)C1CC1` (stereo unspecified), the RP-LC retention time came out at 931 s.
Then `COc1ccc(NC(=O)N2CCN(CC(=O)c3c(C)n(C)c4ccccc34)CC2)cc1`, with 656 s; and `CCn1ccc(C(=O)N2CC(Oc3ccc(-c4nc(C)no4)cc3)C2)n1`, with 819 s; and `CCCNc1cc(N2CCC(CCC(=O)NCCc3ccccn3)CC2)ncn1`, with 557 s.
Then `COCC(=O)NC(Cc1ccccc1)c1nc2ccccc2n1Cc1ccccc1F` (stereo unspecified), with 769 s; and `CCCCN1CCN(C(=O)c2cc(CC)n3nc(-c4ccccn4)cc3n2)CC1`, with 614 s.
Turning to `Cc1ccc(NC(=O)Cc2nnc(-c3cnccn3)o2)cc1F`, the RP-LC retention time is 714 s.
The same measure for `Cc1cc(NC(=O)C(=O)NCC(c2cn(C)c3ccccc23)N(C)C)no1` (stereo unspecified): 572 s; for `Cc1cc(NC(=O)Cn2c(=O)cc(-c3nc(C4CC4)no3)c3ccccc32)ccc1F`: 998 s.
Then `COc1ccccc1NS(=O)(=O)c1cc2n(c1)CCN(CC(C)C)C2=O`, with 798 s.
The same measure for `Cc1cc2nc(C(F)(F)F)c(=O)n(C(C)C(=O)N3CCN(c4ccccn4)CC3)c2cc1C` (stereo unspecified): 796 s; for `Cn1cnc(S(=O)(=O)N2CCC(c3noc(COCc4ccccc4)n3)C2)c1` (stereo unspecified): 761 s; for `CC1CN(S(=O)(=O)c2cccc(-c3cn4cc(Cl)ccc4n3)c2)CC(C)O1` (stereo unspecified): 873 s.
As for `O=C(Cn1cnc2ccccc21)NCCNc1cc(-n2cccn2)ncn1`, the RP-LC retention time was 550 s.
The same measure for `Cc1ccc(CNS(=O)(=O)c2cc(-c3cc(C(F)(F)F)[nH]n3)sc2C)o1`: 964 s.
Molecule `CN(C)c1ccc(/C=C2\SC(=O)N(CC(=O)Nc3ccccc3C(F)(F)F)C2=O)cc1` yielded an RP-LC retention time of 992 s.
Then `CCc1cccc(C)c1Nc1c(-c2cccc(O)c2)nc2nc(C)cc(C)n12`, with 712 s; and `CCCCN(C)Cc1nc(-c2ccc(N3CCOCC3)nc2)no1`, with 594 s.
As for `CC(C)Cn1cc(CCNS(=O)(=O)c2ccc(Br)cc2)c2cccnc21`, the RP-LC retention time is 998 s.
Then `Cc1ccc2c(C(=O)O)cc(NC(=O)C(C)C)cc2n1`, with 563 s.
`Cc1ccc(N2CC(c3noc(-c4ccc(C#N)cc4)n3)CC2=O)cc1` (stereo unspecified): the RP-LC retention time is 947 s.
Then `COc1ccc(-c2c(C)noc2NC(C)=O)cc1S(=O)(=O)Nc1cc(OC)c(OC)c(OC)c1`, with 687 s.
The same measure for `CCCc1nc2cccnc2n1C1CCN(C(=O)c2ccc(N3CCCC3=O)cc2)C1` (stereo unspecified): 579 s; for `CCn1ncc(NC(=O)c2ccc(F)cc2)c(N2CCOCC2)c1=O`: 772 s; for `CCN(CCCNC(=O)Cn1ccc2c(=O)n(C)c(=O)n(C)c21)c1ccccc1`: 578 s.
For the molecule `Cc1cnc(C2CC2)n1C1CCN(C(=O)c2cccn2C)C1` (stereo unspecified), the RP-LC retention time turned out to be 583 s.
For `CCc1nc(-c2ccc(-c3noc(-c4ccnn4C)n3)cc2)cs1`, the RP-LC retention time stood at 1220 s.
The same measure for `COc1ccc(NS(=O)(=O)c2ccc(/C=C\c3onc(C)c3NC(C)=O)cc2)cc1`: 779 s; for `Cc1ccc(-c2noc(-c3sccc3NC(=O)c3ccnn3C)n2)cc1`: 1380 s.
Consider `CCNC(=O)Nc1ccc(OCC(=O)N2CCN(c3ncccn3)CC2)nc1`, for which the RP-LC retention time is 604 s.
For `COc1ccc2c(C)c(C(=O)Nc3cc(C)ns3)oc2c1`, the RP-LC retention time was found to be 826 s.
The same measure for `COc1cc(CSc2nc(CC(=O)NCc3cccs3)cs2)cc(OC)c1`: 873 s; for `CCCS(=O)(=O)c1nc2ccc(NS(=O)(=O)c3ccccc3F)cc2s1`: 882 s; for `CCOc1ccc2ncc(S(=O)(=O)c3ccc(OC)cc3)c(N3CCOCC3)c2c1`: 919 s.
Then `Cc1ccc(-c2noc(Cc3nc(-c4cccc(Cl)c4)cs3)n2)cc1`, with 1040 s.
`O=S(=O)(C1CC1)N1CCCCC1c1nncn1CC1CC1` (stereo unspecified): the RP-LC retention time worked out at 578 s.
The same measure for `Cc1ccc(CNC(=O)C2(C)CCN(S(=O)(=O)c3ccc(F)cc3)CC2)cc1`: 965 s; for `Cc1ccc(Nc2nc(-c3ccc(C)cc3)c(C)s2)cc1`: 1180 s.
Molecule `O=C(Cn1nc2c(N3CCCCCC3)nccn2c1=O)Nc1ccccc1C(F)(F)F` registered an RP-LC retention time of 727 s.
`Cc1nc2ccc3nc(NC(=O)COc4ccccc4F)sc3c2s1` gave an RP-LC retention time of 877 s.
In turn, `Cc1oc(-c2[nH]ncc2C(=O)N2CCCC2)cc1S(=O)(=O)NCc1cc(F)ccc1F` had an RP-LC retention time of 700 s.
As to `CCC(=O)Nc1ccc(SCc2nnc(-c3ccccc3)o2)cc1`, the RP-LC retention time was 811 s.
`COC(=O)N(C)c1c(N)nc(-c2nn(Cc3ccccc3F)c3ncccc23)nc1N` yielded an RP-LC retention time of 729 s.
The molecule `CCCC1c2nccn2CCCN1C(=O)c1ccoc1C` (stereo unspecified) returned an RP-LC retention time of 592 s.
The same measure for `O=C(Nc1c(-c2ccc(F)cc2)nc2ccccn12)c1cccc(C(F)(F)F)c1`: 748 s; for `COc1cccc(CNC(=O)Cn2cccc2-c2nnc(-c3ccccc3)o2)c1`: 895 s; for `COc1ccc(C(=O)N2C[C@@H]3C[C@H](NC(=O)c4ccccc4)[C@H]2C3)c(OC)c1`: 716 s.
The same measure for `Cc1ccc(-c2nc(CN3CCSCC3)c(C)o2)cc1`: 680 s.
The same measure for `Cc1cc(C)n(CC(C)C(=O)Nc2ccc(Br)cc2)n1` (stereo unspecified): 800 s.
Consider `CCn1cnc(S(=O)(=O)N2CCC(C(=O)Nc3ccc(F)cc3)CC2)c1`, for which the RP-LC retention time was 709 s.
The same measure for `COc1ccccc1-c1noc(Cn2ncn3nc(-c4cccs4)cc3c2=O)n1`: 948 s.
As for `CCCN(CC1CCOC1)C(=O)Nc1ccc(OC)c(F)c1` (stereo unspecified), the RP-LC retention time turned out to be 777 s.
`COc1ccc2[nH]c3c(c2c1)CCNC31CCN(Cc2ccc(F)cc2F)CC1`: the RP-LC retention time was determined as 580 s.
In turn, `O=C(Cn1c(-c2cccs2)cc2cc(F)ccc21)N1CCN(c2ccccn2)CC1` gave an RP-LC retention time of 761 s.
The molecule `CC1=NN(c2cccc(C(=O)O)c2)C(=O)/C1=C\c1ccc(-c2ccc(Cl)c(C(=O)O)c2)o1` showed an RP-LC retention time of 1050 s.
Then `O=C(C1CCCC1)N1CCN(c2cc(-c3ccc(Cl)cc3)[nH]n2)CC1`, with 877 s; and `CC(C)NC(=O)N1CCC(N2C(=O)C3(CCCC3)C2c2ccccc2)CC1` (stereo unspecified), with 837 s; and `CCCN1CCN(C(=O)c2ccc(S(=O)(=O)c3ccccc3)s2)CC1`, with 630 s.
For `COCC(=O)Nc1cccn2nc(C(C)C)nc12`, the RP-LC retention time was found to be 717 s.
The same measure for `Cc1ccccc1NC(=O)Cn1nc2cc(-c3ccccn3)nc(C)n2c1=O`: 746 s; for `COc1ccc(N2CCN(C(=O)C3(c4ccc(NC(=O)C5CC5)cc4)CCC3)CC2)cc1`: 816 s; for `Cc1ccc(CNC(=O)c2ccc(NC(=O)C3CCC3)cc2N2CCOCC2)o1`: 818 s.
Take `CNC(=O)c1ccc(-n2nc(Sc3ccc(OC)cc3)ccc2=O)cc1`: the RP-LC retention time worked out at 702 s.
With `CN1CCN(c2nnc(SCC(=O)Nc3cccc(C(F)(F)F)c3)s2)CC1`, the RP-LC retention time was determined as 560 s.
As to `Cc1c(-c2ccnc(N3CCOCC3)n2)cnc2nc(-c3ccc(Cl)cc3)nn12`, the RP-LC retention time is 1030 s.
Then `COc1ccccc1NC(=O)c1c(O)c2cccnc2n(-c2cccc(F)c2)c1=O`, with 1210 s; and `Cc1ccc(F)c(NC(=O)Nc2ccc(-c3cccc4[nH]nc(N)c34)cc2)c1`, with 845 s.
Then `CN(CCCNC(=O)CN1C(=O)CSc2cccn2-c2ccccc21)Cc1ccccc1`, with 677 s.
